The supplement of paper PMC4862054

What was measured:
Experiment in all cases: drug sensitivity score (DSS), CellTiter-Glo (DSS (AUC-based score)); higher = stronger drug effect (viability inhibition or cytotoxicity); extreme values may be limits of the assay
Details in all cases: incubation time: 72 h
BT-474 = system: BT-474
In short: (§1)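 Breast cancer cells were seeded into 384-well plates containing compound at 5 concentrations in 10-fold steps over a compound-specific 10,000-fold range and incubated 72 h. After CellTox Green and CellTiter-Glo readings, each plate was normalised to 0.1 % DMSO and a positive kill control. The drug sensitivity score rests on the area under the fitted dose-response curve.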

BT-549 = system: BT-549
In short: as §1

CAL-120 = system: CAL-120
In short: as §1

CAL-148 = system: CAL-148
In short: as §1

CAL-51 = system: CAL-51
In short: as §1

CAL-85-1 = system: CAL-85-1
In short: as §1

DU-4475 = system: DU-4475
In short: as §1

HCC1143 = system: HCC1143
In short: as §1

HCC1937 = system: HCC1937
In short: as §1

HDQ-P1 = system: HDQ-P1
In short: as §1

Hs578T = system: Hs578T
In short: as §1

MCF-10A = system: MCF-10A
In short: as §1

MDA-MB-436 = system: MDA-MB-436
In short: as §1

MDA-MB-453 = system: MDA-MB-453
In short: as §1

MFM-223 = system: MFM-223
In short: as §1

| SMILES | drug sensitivity score (BT-474) | drug sensitivity score (BT-549) | drug sensitivity score (CAL-120) | drug sensitivity score (CAL-148) | drug sensitivity score (CAL-51) | drug sensitivity score (CAL-85-1) | drug sensitivity score (DU-4475) | drug sensitivity score (HCC1143) | drug sensitivity score (HCC1937) | drug sensitivity score (HDQ-P1) | drug sensitivity score (Hs578T) | drug sensitivity score (MCF-10A) | drug sensitivity score (MDA-MB-436) | drug sensitivity score (MDA-MB-453) | drug sensitivity score (MFM-223) |
| --- | --- | --- | --- | --- | --- | --- | --- | --- | --- | --- | --- | --- | --- | --- | --- |
| COc1cc2c(cc1-c1c(C)noc1C)ncc1[nH]c(=O)n([C@H](C)c3ccccn3)c12 [I-BET151] | 3.77 | 8.5 | 5.1 | 0 | 3.89 | 8.93 | 3.45 | 1.94 | 2.32 | 3.02 | 9.14 | 5.37 | 0 | 7.96 | 6.13 |
| CC(C)n1nc(-c2ccc3oc(N)nc3c2)c2c(N)ncnc21 [INK128] | 11.5 | 15.9 | 14.9 | 14.7 | 16.5 | 14.2 | 8.44 | 13 | 8.72 | 13.5 | 13.8 | 12 | 11.3 | 14.8 | 15.5 |
| O=NN(CCCl)C(=O)NC1CCCCC1 [Lomustine] | 0 | 0 | 0 | 0 | 0 | 0 | 0 | 0 | 0 | 0 | 0 | 0 | 0 | 0 | 0 |
| O=C(O)CC[C@H]1CC[C@@](c2cc(F)ccc2F)(S(=O)(=O)c2ccc(Cl)cc2)CC1 [MK-0752] | 0 | 0 | 0 | 0 | 0 | 0 | 0 | 0 | 0 | 0 | 0 | 0 | 0 | 0 | 0 |
| NC1(c2ccc(-c3nc4ccn5c(=O)[nH]nc5c4cc3-c3ccccc3)cc2)CCC1 [MK-2206] | 0 | 2.74 | 0 | 1.35 | 0 | 0 | 0.0487 | 0 | 0 | 0 | 0.281 | 0 | 0 | 5.41 | 1.78 |
| NC(=O)c1cccc2cn(-c3ccc([C@@H]4CCCNC4)cc3)nc12 [MK-4827] | 0 | 0 | 0 | 0.954 | 0 | 0 | 2.22 | 0 | 0 | 0 | 0 | 0 | 3.73 | 0 | 0 |
| N[C@@H](Cc1ccc(N(CCCl)CCCl)cc1)C(=O)O [Melphalan] | 19.2 | 14.4 | 11.5 | 19.5 | 21.3 | 17.4 | 19.1 | 13.9 | 20.2 | 19.5 | 16.2 | 17.6 | 16.6 | 21.3 | 19.3 |
| O=C(c1cc(Cc2n[nH]c(=O)c3ccccc23)ccc1F)N1CCN(C(=O)C2CC2)CC1 [Olaparib] | 0 | 1.44 | 1.26 | 2.94 | 10.1 | 0 | 0 | 0 | 0 | 0 | 0 | 0 | 4.69 | 0 | 0 |
| CO[C@H](C(=O)[C@@H](O)[C@@H](C)O)[C@@H]1Cc2cc3cc(O[C@H]4C[C@@H](O[C@@H]5C[C@@H](O)[C@H](O)[C@@H](C)O5)[C@H](O)[C@@H](C)O4)c(C)c(O)c3c(O)c2C(=O)[C@H]1O[C@H]1C[C@@H](O[C@@H]2C[C@@H](O)[C@@H](O[C@@H]3C[C@](C)(O)[C@H](O)[C@@H](C)O3)[C@@H](C)O2)[C@H](O)[C@@H](C)O1 [Plicamycin] | 6.47 | 7.16 | 2.12 | 4.43 | 18.2 | 4.1 | 5.55 | 4.54 | 4.37 | 2.83 | 4.2 | 4.28 | 2.49 | 3.11 | 1.97 |
| C[C@]12C=CC(=O)C=C1CC[C@@H]1[C@@H]2C(=O)C[C@@]2(C)[C@H]1CC[C@]2(O)C(=O)CO [Prednisone] | 0 | 0 | 0.925 | 0 | 0 | 0 | 0 | 0 | 0 | 0 | 0 | 0 | 0 | 0 | 0 |
| CO[C@H]1C[C@@H]2CC[C@@H](C)[C@@](O)(O2)C(=O)C(=O)N2CCCC[C@H]2C(=O)O[C@H]([C@H](C)C[C@@H]2CC[C@@H](O)[C@H](OC)C2)CC(=O)[C@H](C)/C=C(\C)[C@@H](O)[C@@H](OC)C(=O)[C@H](C)C[C@H](C)/C=C/C=C/C=C/1C [Sirolimus] | 2.79 | 9.21 | 6 | 6.47 | 7.01 | 8.85 | 1.94 | 5.31 | 3.34 | 2.98 | 7.08 | 0 | 3.52 | 6.86 | 5.41 |
| CN1CCN(c2nc(C3=C(c4c[nH]c5ccccc45)C(=O)NC3=O)c3ccccc3n2)CC1 [Sotrastaurin] | 0 | 0 | 0 | 0 | 0 | 0 | 1.72 | 0 | 0 | 0.186 | 0 | 0 | 0 | 0 | 0 |
| CC/C(=C(\c1ccccc1)c1ccc(OCCN(C)C)cc1)c1ccccc1 [Tamoxifen] | 0 | 0 | 0.0022 | 0 | 4.03 | 0 | 0 | 0 | 1.17 | 0 | 0 | 0 | 0 | 5.28 | 1.68 |
| COc1cc2c(N3CCN(C(=O)Nc4ccc(OC(C)C)cc4)CC3)ncnc2cc1OCCCN1CCCCC1 [Tandutinib] | 0 | 0 | 0 | 0 | 0 | 0 | 0 | 0 | 0 | 0 | 0 | 0 | 0 | 0 | 0 |
| C[C@@H](C(=O)O)c1ccc(-c2ccccc2)c(F)c1 [Tarenflurbil] | 0 | 0 | 0 | 0 | 0 | 0 | 0 | 0 | 0 | 0 | 0 | 0 | 0 | 0 | 0 |
| Cn1nnc2c(C(N)=O)ncn2c1=O [Temozolomide] | 0 | 0 | 0 | 0 | 0 | 0 | 0 | 0 | 0 | 0 | 0 | 0 | 0 | 0 | 0 |
| CN1CCc2c(c3ccccc3n2Cc2ccc(C(=O)NO)cc2)C1 [Tubastatin A] | 0 | 0.314 | 0 | 0 | 11.2 | 0.989 | 0 | 2.45 | 1.2 | 0 | 0 | 0 | 0 | 0 | 0 |
| CC[C@@H]1C(=O)N(C)c2cnc(Nc3ccc(C(=O)N[C@H]4CC[C@H](N5CCN(CC6CC6)CC5)CC4)cc3OC)nc2N1C(C)C [Volasertib] | 8.07 | 15.1 | 7.64 | 4.27 | 16.3 | 12.6 | 8.16 | 11.2 | 3.79 | 5.3 | 9.68 | 8.92 | 12.9 | 12 | 15.5 |
